Like-named read-outs stand apart in the source and are kept apart here. Where only a bound is given, the exact number is not on record here.

Assay [1] deals with T1, human DA transporters [(h)DAT] (Homo sapiens, UniProt Q01959).
T1 construct: expressed in transfected cells; host or cells: HEK-293
Briefly: Inhibition of [3H]dopamine uptake into HEK293 cells stably expressing hDAT. The format is cell-based. The text has this: (§1) Cell Lines and Culture: Human embryonic kidney (HEK-293) cells stably expressing human DAT, NET or SERT were maintained as previously described in Eshleman, A. J.; Carmolli, M.; Cumbay, M.; Martens, C. R.; Neve, K. A.; Janowsky, A., J. Pharmacol. Exp. Ther. 1999, 289, (2), 877-885. Use was made of several human cell lines that naturally or heterologously express specific, functional, human nAChR subtypes. Cells of the TE671/RD line naturally expresses muscle-type nAChR (a1β1γδ- or α1*-nAChR), and SH-SY5Y neuroblastoma cells naturally expresses autonomic α3β4*-nAChRs (containing α3, β4, probably α5, and sometimes β2 subunits). Different clones of SH-EP1 epithelial cell lines have been engineered to heterologously express either α4β2-nAChR, which are thought to be the most abundant, high affinity nicotine-binding nAChR in mammalian brain, or α4β4-nAChR, another possible brain nAChR subtype (SH-EP1-hα4β2 or α4β4 cells, respectively). These cells were maintained as low passage number (1-26 from our frozen stocks) cultures to ensure stable expression of native or heterologously-expressed nAChR as previously described (see Lukas, R. J.; Fryer, J. D.; Eaton, J. B.; L., G. C., Some methods for studies of nicotinic acetylcholine receptor pharmacology, in Nicotinic receptors and the Nervous System, Levine, E. D., Ed. CRC Press: Boca Raton, 2002; pp 3-27, incorporated herein by reference in its entirety). Cells were passaged once weekly by splitting just-confluent cultures 1/300 (TE671/RD), 1/5 (SH-SY5Y), or 1/20 (transfected SH-EP1) in serum-supplemented medium to maintain log-phase growth.
(§2) See, for example, Damaj, M. I.; Carroll, F. I.; Eaton, J. B.; Navarro, H. A.; Blough, B. E.; Mirza, S.; Lukas, R. J.; Martin, B. R., Mol. Pharmacol. 2004, 66, (3), 675-682 and Eshleman, A. J.; Carmolli, M.; Cumbay, M.; Martens, C. R.; Neve, K. A.; Janowsky, A., J. Pharmacol. Exp. Ther. 1999, 289, (2), 877-885, both incorporated by reference herein in their entireties.

For assay [2], the target named is T2, 5HT transporters [(h)SERT] (Homo sapiens, UniProt P31645).
T2 construct: expressed in transfected cells; host or cells: HEK-293
Nature of the assay: Inhibition of [3H]serotonin uptake into HEK293 cells stably expressing hSERT. It is filed as cell-based.
Excerpt: as §1, §2

In the next assay the target is T3, α3β4*-nAChR (Homo sapiens, UniProt P30926+P32297).
T3 construct: other: EC80-EC90 carbamylcholine; SH-SY5Y; parentheses = S.E.M. as multiplication/division
Briefly: 86Rb+ efflux nAChR functional assay, SH-SY5Y cells. The format is cell-based. Particulars: EC80-EC90 carbamylcholine; SH-SY5Y; parentheses = S.E.M. as multiplication/division factor; read-out: nAChR inhibition IC50 α3β4±.
Excerpt: as §1
After cells had adhered (generally overnight, but no sooner than 4 h later), the medium was removed and replaced with 250 μL per well of complete medium supplemented with ˜350,000 cpm of ^86Rb^+ (PerkinElmer Life and Analytical Sciences, Boston, Mass.) and counted at 40% efficiency using Cerenkov counting (TriCarb 1900 liquid scintillation analyzer[…]; PerkinElmer Life Sciences).
After at least 4 h and typically overnight, ^86Rb^+ efflux was measured using the “flip-plate” technique. See Lukas, R. J.; Fryer, J. D.; Eaton, J. B.; L., G. C., Some methods for studies of nicotinic acetylcholine receptor pharmacology, in Nicotinic receptors and the Nervous System, Levine, E. D., Ed. CRC Press: Boca Raton, 2002; pp 3-27, incorporated herein by reference in its entirety). Briefly, after aspiration of the bulk of ^86Rb^+ loading medium from each well of the “cell plate,” each well containing cells was rinsed 3× with 2 mL of fresh ^86Rb^+ efflux buffer (130 mM NaCl, 5.4 mM KCl, 2 mM CaCl2, 5 mM glucose, 50 mM HEPES, pH 7.4) to remove extracellular ^86Rb^+. Following removal of residual rinse buffer by aspiration, the flip-plate technique was used again to simultaneously introduce 1.5 mL of fresh efflux buffer containing drugs of choice at indicated final concentrations from a 24-well “efflux/drug plate” into the wells of the cell plate. After a 5 min incubation, the solution was “flipped” back into the efflux/drug plate, and any remaining buffer in the cell plate was removed by aspiration. Cells remaining in the cell plate were lysed and suspended by addition of 1.5 mL of 0.1 M NaOH, 0.1% sodium dodecyl sulfate to each well.
Similarly, the sum of ^86Rb^+ in cell plates and efflux/drug plates also determined the efficiency of ^86Rb^+ loading (the percentage of applied ^86Rb^+ actually loaded into cells).
Specific efflux was then taken as the difference in control samples between total and non-specific ^86Rb^+ efflux. Any intrinsic agonist activity of test drugs was ascertained using samples containing test drug only at different concentrations and was normalized, after subtraction of non-specific efflux, to specific efflux in test drug-free, control samples.

In assay [3] the test system is Male Institute of Cancer Research (ICR) mice. Nature of the assay: Tail-flick test, blockade of nicotine-induced antinociception. The format is in vivo. To be noted: for ED50: Mus musculus, 5 min, mice, pretreatment 15 min before nicotine 2.5 mg/kg s.c., tested 5 min after nicotine, read-out: AD50 Tail-flick; for activity in the tail-flick assay relative to (2S,3S)-4a: higher activity than (2S,3S)-4a. An excerpt:
(§3) Animals: Male Institute of Cancer Research (ICR) mice (weighing 20-25 g) obtained from Harlan (Indianapolis, Ind.) were used throughout the study. Animals were housed in an Association for Assessment and Accreditation of Laboratory Animal Care-approved facility, were placed in groups of six, and had free access to food and water. Studies were approved by the Institutional Animal Care and Use Committee of Virginia Commonwealth University.
Tail-Flick Test: Antinociception for pain mediated at the spinal level was assessed by the tail-flick method of D'Amour, F. E.; Smith, D. L., J. Pharmacol. Exp. Ther. 1941, 72, 74-79, incorporated herein by reference in its entirety. In brief, mice were lightly restrained while a radiant heat source was shone onto the upper portion of the tail. To minimize tissue damage, a maximum latency of 10 s was imposed. Latency to remove the tail from the heat source was recorded for each animal. […] Antinociceptive response was calculated as the percentage of maximum possible effect (% MPE), where % MPE=[(test control)/(10 control)]×100.

Assay [4] has the same test system. Briefly: Body temperature, antagonism of nicotine-induced hypothermia. To be noted: pretreatment 15 min before nicotine 2.5 mg/kg s.c., tested 30 min after nicotine; for ED50: Mus musculus, 0.5 h, read-out: AD50 Hypothermia. The format is in vivo. On the procedure:
as §3
Body Temperature: Rectal temperature was measured by a thermistor probe (inserted 24 mm) and digital thermometer (YSI Inc., Yellow Springs, Ohio). Readings were taken just before and 30 min after subcutaneous injection of either saline or 2.5 mg/kg nicotine. The difference in rectal temperature before and after treatment was calculated for each mouse. The ambient temperature of the laboratory varied from 21 to 24° C. from day to day. […] The animals were then tested 30 min after administration of a subcutaneous dose of 2.5 mg/kg nicotine.

Where [5] appears, read: HEK293-hDAT, mean ± standard error of three independent experiments, read-out: monoamine uptake inhibition IC50 [3H]DA.
Where [6] appears, read: read-out: monoamine uptake inhibition IC50 [3H]5HT.
Setting [7] is: HEK293-hSERT, mean ± standard error of three independent experiments, read-out: monoamine uptake inhibition IC50 [3H]5HT.

T2 sequence (P31645 whole entry): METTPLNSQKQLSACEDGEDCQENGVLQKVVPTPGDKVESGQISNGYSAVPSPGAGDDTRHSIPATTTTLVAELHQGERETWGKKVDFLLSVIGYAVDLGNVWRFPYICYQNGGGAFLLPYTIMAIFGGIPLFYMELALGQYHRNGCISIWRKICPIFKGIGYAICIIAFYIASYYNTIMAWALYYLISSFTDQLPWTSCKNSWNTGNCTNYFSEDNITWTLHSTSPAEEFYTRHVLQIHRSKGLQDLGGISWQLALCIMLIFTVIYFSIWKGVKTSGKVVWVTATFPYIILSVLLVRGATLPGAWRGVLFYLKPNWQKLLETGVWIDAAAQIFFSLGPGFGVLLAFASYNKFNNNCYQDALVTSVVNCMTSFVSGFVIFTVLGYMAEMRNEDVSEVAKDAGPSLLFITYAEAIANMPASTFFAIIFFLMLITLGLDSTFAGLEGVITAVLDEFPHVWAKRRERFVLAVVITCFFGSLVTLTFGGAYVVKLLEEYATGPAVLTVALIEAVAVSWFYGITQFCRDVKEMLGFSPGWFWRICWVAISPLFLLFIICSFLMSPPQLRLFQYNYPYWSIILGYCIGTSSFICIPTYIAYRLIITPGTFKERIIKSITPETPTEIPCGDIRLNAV
T1 sequence (Q01959 whole entry): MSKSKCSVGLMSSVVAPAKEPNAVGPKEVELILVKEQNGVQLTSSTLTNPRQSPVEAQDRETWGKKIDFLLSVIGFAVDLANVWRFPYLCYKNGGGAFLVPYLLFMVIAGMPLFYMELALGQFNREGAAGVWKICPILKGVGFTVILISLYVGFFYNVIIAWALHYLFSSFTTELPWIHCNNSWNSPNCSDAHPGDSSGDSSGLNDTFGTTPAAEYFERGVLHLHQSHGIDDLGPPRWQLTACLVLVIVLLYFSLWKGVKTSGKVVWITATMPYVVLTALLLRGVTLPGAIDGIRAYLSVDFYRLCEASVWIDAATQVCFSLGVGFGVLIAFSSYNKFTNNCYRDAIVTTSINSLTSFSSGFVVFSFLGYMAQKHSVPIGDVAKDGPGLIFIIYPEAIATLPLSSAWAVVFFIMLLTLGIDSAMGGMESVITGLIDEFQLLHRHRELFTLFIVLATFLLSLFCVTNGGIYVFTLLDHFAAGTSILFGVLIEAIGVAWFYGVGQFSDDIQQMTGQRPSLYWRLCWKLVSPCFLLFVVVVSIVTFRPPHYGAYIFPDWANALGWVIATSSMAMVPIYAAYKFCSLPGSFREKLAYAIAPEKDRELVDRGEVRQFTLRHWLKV
T3 sequence (P32297 32-505): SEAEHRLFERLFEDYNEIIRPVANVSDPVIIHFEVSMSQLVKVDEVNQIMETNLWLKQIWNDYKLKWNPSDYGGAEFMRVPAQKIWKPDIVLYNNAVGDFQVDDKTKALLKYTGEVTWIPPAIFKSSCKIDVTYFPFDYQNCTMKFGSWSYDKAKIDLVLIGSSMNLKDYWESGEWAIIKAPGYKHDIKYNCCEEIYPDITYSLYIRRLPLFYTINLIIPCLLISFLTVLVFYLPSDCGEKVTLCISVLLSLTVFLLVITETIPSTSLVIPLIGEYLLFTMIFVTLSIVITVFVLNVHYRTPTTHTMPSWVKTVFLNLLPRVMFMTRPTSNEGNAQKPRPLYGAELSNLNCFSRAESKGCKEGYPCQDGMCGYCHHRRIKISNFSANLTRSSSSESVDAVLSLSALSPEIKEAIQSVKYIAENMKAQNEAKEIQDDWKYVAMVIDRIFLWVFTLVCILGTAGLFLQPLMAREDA
T3 sequence (P30926 22-498): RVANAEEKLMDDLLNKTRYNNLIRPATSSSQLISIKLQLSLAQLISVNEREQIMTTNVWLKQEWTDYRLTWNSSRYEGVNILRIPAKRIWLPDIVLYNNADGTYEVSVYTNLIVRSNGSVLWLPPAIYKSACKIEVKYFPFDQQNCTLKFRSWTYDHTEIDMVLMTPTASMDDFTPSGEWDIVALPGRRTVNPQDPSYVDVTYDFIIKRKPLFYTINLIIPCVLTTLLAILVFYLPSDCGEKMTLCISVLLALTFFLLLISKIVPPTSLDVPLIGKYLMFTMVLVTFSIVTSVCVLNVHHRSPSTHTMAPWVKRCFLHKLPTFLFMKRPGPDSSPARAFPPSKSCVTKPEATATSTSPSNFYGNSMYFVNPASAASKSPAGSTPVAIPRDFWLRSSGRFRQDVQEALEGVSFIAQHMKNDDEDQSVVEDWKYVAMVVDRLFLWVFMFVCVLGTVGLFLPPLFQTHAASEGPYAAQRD

Take `C[C@@H]1NC(C)(C)CO[C@@]1(O)c1cccc2ccccc12` [Compound 4q, (2S,3S)-2-(Naphthalen-1-yl)-3,5,5-trimethylmorpholin-2-ol]: the IC50 is 10 µM in assay [1] (setting [5]), 1.56 ± 0.215 µM in assay [2] (setting [6]) and 5.2 µM on α3β4*-nAChR. Moreover, the ED50 in assay [3] is 0.034 mg/kg. In addition, the “activity in the tail-flick assay relative to (2S,3S)-4a” value in assay [3] is on record as roughly 5 fold. Besides, in assay [4], the “AD50 Hypothermia” value is reported as “IA (IA: AD50 > 15 mg/kg)”.

Take `C[C@@H]1NC(C)(C)CO[C@@]1(O)c1ccc2ccccc2c1` [Compound 4r, (2S,3S)-2-(Naphthalen-2-yl)-3,5,5-trimethylmorpholin-2-ol]: the figures for the IC50 (in assay [1] (setting [5]); in assay [2] (setting [6]); on α3β4*-nAChR) were 0.453 µM, 0.334 ± 0.042 µM and 2 µM, respectively. For the same molecule, in assay [3], the ED50 was found to be 0.04 mg/kg. In assay [3], the “activity in the tail-flick assay relative to (2S,3S)-4a” value was roughly 5 fold. The “AD50 Hypothermia” value in assay [4] was “IA (IA: AD50 > 15 mg/kg)”.

On to `C[C@@H]1NC(C)(C)CO[C@@]1(O)c1ccc(-c2ccccc2)cc1` [Compound 4l, (2S,3S)-2-Biphenyl-4-yl-3,5,5-trimethylmorpholin-2-ol], for which the IC50 is greater than 10 µM in assay [1], greater than 10 µM in assay [2] and 1.3 µM at α3β4*-nAChR. Moreover, the ED50 in assay [3] amounted to 0.021 mg/kg. For the same molecule, in assay [4], the “AD50 Hypothermia” value was “IA (IA: AD50 > 15 mg/kg)”.

With `Cc1ccc([C@]2(O)OCC(C)(C)N[C@H]2C)cc1` [Compound 4j, (2S,3S)-3,5,5-Trimethyl-2-(4-methylphenyl)morpholin-2-ol], the IC50 is 0.832 ± 0.26 µM in assay [1] (setting [5]), greater than 10 µM in assay [2] (setting [7]) and 8.6 µM on α3β4*-nAChR. Further, the ED50 in assay [3] was determined as 0.004 mg/kg. Besides, in assay [4], the “AD50 Hypothermia” value is reported as “IA (IA: AD50 > 15 mg/kg)”.

For the molecule `C[C@@H]1NC(C)(C)CO[C@@]1(O)c1cccc(Br)c1` [Compound 4d, (2S,3S)-2-(3-Bromophenyl)-3,5,5-trimethylmorpholin-2-ol], the IC50 in assay [1] (setting [5]) was 3.34 ± 0.68 µM; in assay [2], greater than 10 µM; at α3β4*-nAChR it was 3.2 µM. Moreover, the ED50 stood at 0.16 mg/kg in assay [3] and 1.7 mg/kg in assay [4].

Take `C[C@@H]1NC(C)(C)CO[C@@]1(O)c1cccc(F)c1` [Compound 4c, (2S,3S)-2-(3-Fluorophenyl)-3,5,5-trimethylmorpholin-2-ol]: the concentration for half-maximal inhibition (IC50) was 1.38 ± 0.36 µM in assay [1] (setting [5]), greater than 10 µM in assay [2] and 15 µM on α3β4*-nAChR. Moreover, the figures for the ED50 in assay [3] and in assay [4] were 0.012 to 0.013 mg/kg and 2.3 to 7 mg/kg, respectively.

Take `C[C@@H]1NC(C)(C)CO[C@@]1(O)c1ccc(F)c(F)c1` [Compound 4m, (2S,3S)-2-(3,4-Difluorophenyl)-3,5,5-trimethylmorpholin-2-ol]: the IC50 in assay [1] (setting [5]) is 2.14 ± 0.18 µM; in assay [2] (setting [7]) it was greater than 10 µM; at α3β4*-nAChR, 11.9 µM. Also, in assay [3], the ED50 turned out to be 0.006 mg/kg. The “AD50 Hypothermia” value in assay [4] is given as “IA (IA: AD50 > 15 mg/kg)”.

(Values after patent publication US8906908B2, “Hydroxybupropion analogues for treating drug dependence” (priority 2010, dated 2014).)
